Laboratory results as given in publication PMC7054748, “The identification and characterisation of autophagy inhibitors from the published kinase inhibitor sets” (Biochemical Journal, 2020).
“And” between values parts separate entries of the source, which are not always exact repeats. Equal entries are not always repeated. Where two headings read alike, the source gives them in different places.

Columns and labels:
AMPK (ULK1 pS556) = experiment: Upstream AMPK activity: ULK1 pS556 western blot in U2OS cells; type: cell-based, human; conditions: for Effect on AMPK activity (pS556 ULK1): 100 nM (VPS34-IN1 500 nM), 60 min pre-treatment, ± EBSS 60 min
Protocol: (§1) U2OS (human osteosarcoma-derived) cells were cultured in DMEM supplemented with 10% foetal bovine serum, 100 U/ml Penicillin and […] L-glutamine. Cells were pre-treated with compounds at the indicated concentrations for 60 min followed by treatments with EBSS or EBSS combined with/without 50 nM Bafilomycin A1 (Enzo Life Sciences) for a further 60 or 120 min with/without inhibitors, as indicated in figures/figure legends.
(§2) Lysates were then spun at 20 000×g for 10 min and the supernatant was collected for protein content estimation using Protein Assay Dye Reagent Concentrate from Bio-Rad. 4× LDS was added to the lysate (final dilution 1×) prior to heating at 95°C for 5 min. Electrophoresis and transfer to PVDF membranes was performed using standard protocols. Membranes were blocked in 5% milk in TBS-T prior to incubation with primary antibodies (in 5% milk/TBS-T for ULK1, pS555 (human S556) ULK1, pS757 (human S758) ULK1, pS318-ATG13, ATG13, and in 5% BSA/TBS-T for LC3 and α-Tubulin) under rotation overnight at 4°C followed by washes in TBS-T and incubation with HRP-conjugated secondary antibodies (in 5% milk in TBS-T) for 60 min at room temperature. Membranes were washed in TBS-T before application of ECL reagent (GE healthcare) and development on hypersensitive X-ray films (GE healthcare) (Figures 5A, 6C and Supplementary Figure S7C) or using BIO-RAD Clarity^TM western blotting substrate (Supplementary Figure S6C and Supplementary Figure S7A) and a BIO-RAD ChemiDoc^TM imaging system.
(§3) Quantification of western blots was performed with band densitometry analysis using ImageJ. Quantification of LC3 puncta was performed using either the ITCN plugging in ImageJ or Volocity. One-way or two-way Anova (using GraphPad Prism) followed by a post-hoc test, was used for statistical analysis of western blots and immunofluorescence as indicated in figure legends.

mTOR (ULK1 pS758) = experiment: Upstream mTOR activity: ULK1 pS758 western blot in U2OS cells; type: cell-based, human; conditions: for Effect on mTORC1 activity (pS758 ULK1): 100 nM (VPS34-IN1 500 nM), 60 min pre-treatment, ± EBSS 60 min
Protocol: as §1, §2, §3

LC3 flux in U2OS cells = experiment: Autophagic flux: LC3-II western blot with/without BafA1 in U2OS cells; type: cell-based, human; conditions: for Effect on starvation-induced LC3 flux: 5 µM, 60 min pre-treatment then 60 min EBSS ± 50 nM BafA1, U2OS
Protocol: as §1
as §2, with “Prior to western blot analysis, cells were washed twice in ice-cold PBS and lysed in buffer containing 50 mM HEPES pH 7.4, 150 mM NaCl, 1 mM EDTA, 10% Glycerol, 0.5% NP-40, 1 mM DTT, supplemented with phosphatase inhibitors (1.15 mM sodium molybdate, 4 mM sodium tartrate, 0.01 M β-glycerophosphate, 1 mM sodium fluoride, 1 mM sodium orthovanadate) and protease inhibitor tablets (Roche) according to manufacturer's instructions. Lysates” for “Lysates”
as §3

AMPK α1β2ɣ1 = AMPK α1β2ɣ1 (Homo sapiens, UniProt O43741+P54619+Q13131); experiment: AMPK ADP Hunter Plus kinase activity assay
Sequence of AMPK α1β2ɣ1 (Q13131 whole entry): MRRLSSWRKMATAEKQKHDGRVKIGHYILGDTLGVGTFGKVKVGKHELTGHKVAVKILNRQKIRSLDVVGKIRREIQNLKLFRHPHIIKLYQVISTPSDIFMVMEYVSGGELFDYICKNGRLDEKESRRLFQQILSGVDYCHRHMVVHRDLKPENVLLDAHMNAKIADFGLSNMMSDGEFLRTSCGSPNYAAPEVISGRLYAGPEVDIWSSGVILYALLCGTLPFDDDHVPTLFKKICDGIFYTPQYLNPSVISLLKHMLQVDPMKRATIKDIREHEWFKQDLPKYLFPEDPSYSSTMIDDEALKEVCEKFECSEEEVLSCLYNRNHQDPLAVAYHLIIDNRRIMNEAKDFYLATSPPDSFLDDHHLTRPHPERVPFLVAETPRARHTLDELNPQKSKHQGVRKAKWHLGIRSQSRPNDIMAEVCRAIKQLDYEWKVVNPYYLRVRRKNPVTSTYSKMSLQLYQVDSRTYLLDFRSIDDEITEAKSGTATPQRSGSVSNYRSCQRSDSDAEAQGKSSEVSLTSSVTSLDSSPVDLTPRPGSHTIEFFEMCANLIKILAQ
Sequence of AMPK α1β2ɣ1 (O43741 whole entry partner): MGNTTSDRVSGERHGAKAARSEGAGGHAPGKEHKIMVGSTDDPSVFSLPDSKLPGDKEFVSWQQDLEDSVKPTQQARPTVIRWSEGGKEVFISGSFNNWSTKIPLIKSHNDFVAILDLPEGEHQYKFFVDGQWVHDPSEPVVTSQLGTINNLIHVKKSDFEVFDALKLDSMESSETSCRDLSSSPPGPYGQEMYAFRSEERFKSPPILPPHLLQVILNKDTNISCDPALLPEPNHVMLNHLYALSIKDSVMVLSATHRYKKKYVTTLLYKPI
Sequence of AMPK α1β2ɣ1 (P54619 whole entry partner): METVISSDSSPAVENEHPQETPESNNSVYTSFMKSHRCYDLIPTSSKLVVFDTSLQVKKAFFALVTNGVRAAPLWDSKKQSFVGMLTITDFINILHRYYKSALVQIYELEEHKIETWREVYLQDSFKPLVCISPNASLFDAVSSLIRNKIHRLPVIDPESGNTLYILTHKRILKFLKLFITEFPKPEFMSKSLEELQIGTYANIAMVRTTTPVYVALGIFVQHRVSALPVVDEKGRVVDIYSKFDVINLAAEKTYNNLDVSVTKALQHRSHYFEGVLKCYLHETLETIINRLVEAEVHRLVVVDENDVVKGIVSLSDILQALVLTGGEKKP

VPS34 = VPS34 (Homo sapiens, UniProt Q8NEB9); experiment: VPS34 ADP Hunter Plus kinase activity assay; conditions: for Mechanism of inhibition of VPS34 with respect to ATP: varying ATP below 200 µM, Michaelis–Menten and Lineweaver–Burk plots; for Mechanism of inhibition of VPS34 with respect to PI:PS: varying PI:PS below 12 µM
Sequence of VPS34 (Q8NEB9 whole entry): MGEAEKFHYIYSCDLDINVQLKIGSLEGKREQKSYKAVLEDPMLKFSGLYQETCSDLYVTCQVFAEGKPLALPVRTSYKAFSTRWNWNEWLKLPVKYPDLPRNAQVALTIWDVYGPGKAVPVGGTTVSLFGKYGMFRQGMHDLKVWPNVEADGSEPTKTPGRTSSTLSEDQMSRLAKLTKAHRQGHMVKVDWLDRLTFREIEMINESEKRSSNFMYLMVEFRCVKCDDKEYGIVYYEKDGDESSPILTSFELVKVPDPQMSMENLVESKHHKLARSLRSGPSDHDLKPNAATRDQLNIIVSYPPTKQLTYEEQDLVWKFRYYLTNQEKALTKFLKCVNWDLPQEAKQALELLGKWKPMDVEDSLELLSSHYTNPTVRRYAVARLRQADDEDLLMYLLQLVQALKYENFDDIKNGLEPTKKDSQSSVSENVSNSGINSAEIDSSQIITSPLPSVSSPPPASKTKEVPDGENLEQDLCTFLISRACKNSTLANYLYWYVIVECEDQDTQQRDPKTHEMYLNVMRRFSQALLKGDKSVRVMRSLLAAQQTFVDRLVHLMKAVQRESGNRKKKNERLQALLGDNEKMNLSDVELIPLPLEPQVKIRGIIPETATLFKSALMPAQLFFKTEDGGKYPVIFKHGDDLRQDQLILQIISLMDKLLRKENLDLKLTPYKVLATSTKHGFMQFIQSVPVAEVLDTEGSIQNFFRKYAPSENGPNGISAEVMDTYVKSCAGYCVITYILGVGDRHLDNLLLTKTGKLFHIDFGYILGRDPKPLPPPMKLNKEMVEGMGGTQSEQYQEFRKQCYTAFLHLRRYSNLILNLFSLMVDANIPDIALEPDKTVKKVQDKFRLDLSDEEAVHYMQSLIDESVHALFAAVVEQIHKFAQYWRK

VPS34 (WIPI2 puncta) = experiment: Cellular VPS34 activity: WIPI2 puncta immunofluorescence in U2OS cells; type: cell-based, human
Protocol: as §1
(§4) Prior to immunofluorescence, cells were grown on glass coverslips to ∼60% confluency. Cells were washed in PBS prior to fixation with 3.7% PFA/10 mM HEPES pH 7.0 at room temperature for 20 min. PFA was quenched using DMEM/10 mM HEPES pH 7.0/0.02% NaN3, followed by permeabilisation with 0.2% NP-40 in PBS for 5 min, followed by blocking with 1% BSA/PBS/0.02% NaN3. Primary antibody incubation was at room temperature for 60 min, followed by two 10-minute washes, then fluorescent secondary antibody incubation for 30 min and further washes (all in blocking buffer) before mounting onto glass slides. A wide field Nikon TS microscope was used for image capturing.
as §3

ULK1 = molecular target: T1, ULK1 (Homo sapiens, UniProt O75385); experiment: ULK1 ADP Hunter Plus kinase activity assay; type: biochemical
T1 construct: purchased MRC PPU Reagents and Services, Dundee, Scotland
T1 sequence (O75385 1-1050): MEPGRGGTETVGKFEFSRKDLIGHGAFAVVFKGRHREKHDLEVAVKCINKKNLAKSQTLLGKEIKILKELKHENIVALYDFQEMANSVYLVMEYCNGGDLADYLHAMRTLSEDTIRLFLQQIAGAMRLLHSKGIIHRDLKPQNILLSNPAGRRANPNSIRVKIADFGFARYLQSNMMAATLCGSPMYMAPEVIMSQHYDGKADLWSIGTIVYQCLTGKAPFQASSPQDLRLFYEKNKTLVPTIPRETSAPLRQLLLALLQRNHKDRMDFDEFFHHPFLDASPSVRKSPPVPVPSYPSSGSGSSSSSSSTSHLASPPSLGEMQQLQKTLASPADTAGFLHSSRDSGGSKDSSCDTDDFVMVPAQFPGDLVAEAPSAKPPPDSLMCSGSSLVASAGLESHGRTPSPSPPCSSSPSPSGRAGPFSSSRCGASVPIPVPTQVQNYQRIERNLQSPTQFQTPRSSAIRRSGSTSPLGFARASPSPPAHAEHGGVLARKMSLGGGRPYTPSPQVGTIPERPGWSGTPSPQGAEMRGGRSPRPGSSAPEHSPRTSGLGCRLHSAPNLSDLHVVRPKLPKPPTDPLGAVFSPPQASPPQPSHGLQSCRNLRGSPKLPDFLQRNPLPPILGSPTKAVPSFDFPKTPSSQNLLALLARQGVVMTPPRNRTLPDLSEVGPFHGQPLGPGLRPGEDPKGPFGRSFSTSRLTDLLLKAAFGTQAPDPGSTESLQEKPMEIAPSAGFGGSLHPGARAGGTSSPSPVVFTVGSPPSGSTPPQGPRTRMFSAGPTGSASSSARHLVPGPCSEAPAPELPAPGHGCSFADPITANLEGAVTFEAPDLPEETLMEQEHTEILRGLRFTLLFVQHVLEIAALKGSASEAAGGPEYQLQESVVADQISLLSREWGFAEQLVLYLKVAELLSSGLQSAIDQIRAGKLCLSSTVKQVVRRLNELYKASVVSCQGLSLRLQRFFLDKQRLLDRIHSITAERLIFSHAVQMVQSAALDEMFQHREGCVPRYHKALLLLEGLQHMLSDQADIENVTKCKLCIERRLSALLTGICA

LC3 puncta in U2OS cells = experiment: Endogenous LC3 puncta immunofluorescence in U2OS cells; type: cell-based, human; conditions: for Enlarged/stalled LC3 puncta (autophagosomes) phenotype: 2 µM MRT68921, 5 µM others, 60 min pre-treatment then 120 min EBSS; for Effect on EBSS-induced increase in LC3 puncta formation: 5 µM
Protocol: as §1, §4, §3

ULK1 (pS318 ATG13) = experiment: Cellular ULK1 kinase activity: pS318 ATG13 western blot in U2OS cells; type: cell-based, human; conditions: for Effect on starvation-induced increase in pS318 ATG13: 5 µM, 60 min pre-treatment then 60 min EBSS, U2OS; for Cellular ULK1 inhibition compared with GW837331X and GW406108X: 2 µM MRT68921, 5 µM SBI0206965, 120 min EBSS, U2OS western blot (Supplementary Figure S6C)
Protocol: as §1, §2, §3

[1] = system: kinases (human kinome panel); design: method as in ChEMBL database; conditions: value = the kinase inhibited over 50%; ref ChEMBL database; cited from earlier work
[2] = IC50 against VPS34, resynthesized samples, mean potency in parenthesis, n = 5
[3] = pIC50 against VPS34, original PKIS samples, concentration-dependent retest of screen hits
[4] = resynthesized samples, mean potency in parenthesis, n = 5, read-out: IC50 against ULK1 (converted)

## CC(C)(O)CNc1ncc(-c2ccnc(Nc3ccnc(Cl)c3)n2)c(CC2CC2)n1 [VPS34-IN1, reference compound]
AMPK (ULK1 pS556)
  Effect on AMPK activity (pS556 ULK1): unaffected
mTOR (ULK1 pS758)
  Effect on mTORC1 activity (pS758 ULK1): unaffected
LC3 flux in U2OS cells; U2OS, EBSS + 50 nM BafA1, as low as, greater effect at 100 nM
  Concentration blocking EBSS-induced autophagy (LC3) flux: ≤ 10 nM

## O=S(=O)(c1ccc(-c2ccnc3[nH]ccc23)cc1)N1CCCC1 [GSK846226A]
AMPK α1β2ɣ1
  IC50: 2510 nM
VPS34; IC50 against VPS34, resynthesized sample
  IC50: 1200 nM
VPS34; [2]
  IC50: 1200 nM
VPS34; [3]
  IC50: < 1000 nM
VPS34
  Mechanism of inhibition of VPS34 with respect to ATP: primarily ATP competitive inhibition
  Mechanism of inhibition of VPS34 with respect to PI:PS: clear non-competitive inhibition
VPS34 (WIPI2 puncta); EBSS, not at lower concentrations
  Concentration with inhibitory effect on WIPI2 puncta formation: 5 µM
ULK1; [4]
  IC50: 603 nM

## O=C1Nc2ccc(C(=O)c3ccco3)cc2C1=Cc1cc(Cl)c(O)c(Cl)c1 [GW406108X]
LC3 puncta in U2OS cells
  Enlarged/stalled LC3 puncta (autophagosomes) phenotype: did not show this phenotype
  Effect on EBSS-induced increase in LC3 puncta formation: abolished
ULK1 (pS318 ATG13)
  Effect on starvation-induced increase in pS318 ATG13: significantly reduced
VPS34; [2]
  IC50: 457 nM
LC3 flux in U2OS cells
  Effect on starvation-induced LC3 flux: significantly blocked

## CN1CCc2cc(Nc3ncc(C4CC4)c(NCCCNC(=O)C4CCC4)n3)ccc2C1 [MRT68921, reference compound]
LC3 puncta in U2OS cells
  Enlarged/stalled LC3 puncta (autophagosomes) phenotype: larger than those formed with EBSS alone
ULK1 (pS318 ATG13)
  Cellular ULK1 inhibition compared with GW837331X and GW406108X: inhibited ULK1 more potently

## CC(C)(CO)CNC(=O)c1ccc2c(c1)/C(=N/Nc1ccc(S(N)(=O)=O)cc1)C(=O)N2 [GW301784X]
ULK1 (pS318 ATG13)
  Effect on starvation-induced increase in pS318 ATG13: did not have a significant effect
AMPK α1β2ɣ1
  IC50: 347 nM
VPS34; pIC50 against VPS34, resynthesized samples, 50 µM ATP (KM app), mean ± SD, n = 5
  IC50: 26300 nM
LC3 flux in U2OS cells
  Effect on starvation-induced LC3 flux: did not block LC3 flux

## CNC(=O)c1ccccc1Oc1nc(Nc2cc(OC)c(OC)c(OC)c2)ncc1Br [SBI0206965, reference compound]
LC3 puncta in U2OS cells
  Enlarged/stalled LC3 puncta (autophagosomes) phenotype: larger than those formed with EBSS alone
ULK1 (pS318 ATG13)
  Cellular ULK1 inhibition compared with GW837331X and GW406108X: inhibited ULK1 more potently

## COc1cc(Nc2ncc3c(C)nc(-c4cccc(C(F)(F)F)c4)n3n2)cc(OC)c1OC [GW837331X]
LC3 puncta in U2OS cells
  Enlarged/stalled LC3 puncta (autophagosomes) phenotype: did not show this phenotype
  Effect on EBSS-induced increase in LC3 puncta formation: abolished
ULK1 (pS318 ATG13)
  Effect on starvation-induced increase in pS318 ATG13: significantly reduced
AMPK (ULK1 pS556); 5 µM
  Effect on AMPK activity (ULK1 pS556 levels): without affecting mTOR or AMPK activity
[1]
  Kinases that are inhibited over 50% (descending order): NEK9 and PLK1 and FMS and SRC and MELK and EphB2 and EphA4
mTOR (ULK1 pS758); 5 µM
  Effect on mTOR activity (ULK1 pS758 levels): without affecting mTOR or AMPK activity
AMPK α1β2ɣ1
  IC50: 2340 nM
VPS34; [2]
  IC50: > 100000 nM
LC3 flux in U2OS cells
  Effect on starvation-induced LC3 flux: significantly blocked
ULK1; original PKIS samples, concentration-dependent retest of screen hits, read-out: pIC50 against ULK1 (converted)
  IC50: < 1000 nM
ULK1; [4]
  IC50: 646 nM
ULK1; varying ATP below 600 µM, Michaelis–Menten and Lineweaver–Burk plots
  Mechanism of inhibition of ULK1 with respect to ATP: primarily ATP competitive inhibition
ULK1; varying MBP substrate
  Mechanism of inhibition of ULK1 with respect to MBP: clear non-competitive inhibition

## O=C1Nc2ccc(-c3cccnc3)cc2C1=Cc1cc(Br)c(O)c(Br)c1 [GW429374A]
AMPK (ULK1 pS556)
  Effect on AMPK activity (pS556 ULK1): unaffected
mTOR (ULK1 pS758)
  Effect on mTORC1 activity (pS758 ULK1): unaffected
AMPK α1β2ɣ1
  IC50: 3160 nM
VPS34; [2]
  IC50: 90.5 nM and 91 nM
VPS34; [3]
  IC50: < 1000 nM
VPS34
  Mechanism of inhibition of VPS34 with respect to ATP: primarily ATP competitive inhibition
  Mechanism of inhibition of VPS34 with respect to PI:PS: clear non-competitive inhibition
VPS34 (WIPI2 puncta); 100 nM, 60 min pre-treatment then 60 min EBSS, vs EBSS only
  Effect on EBSS-induced WIPI2 puncta: significantly reduced
VPS34 (WIPI2 puncta); EBSS, as low as
  Concentration working in cells (WIPI2 puncta reduction): ≤ 100 nM
LC3 flux in U2OS cells; 100 nM, 60 min pre-treatment then 60 min EBSS, U2OS
  Effect on LC3 flux under EBSS starvation: significantly reduced LC3 flux
ULK1; [4]
  IC50: 8710 nM
